What follows are molecules tested on Staphylococcus aureus (assay: Antibacterial activity against methicillin-resistant Staphylococcus aureus clinical isolate measured after overnight incubation at 37 degC).
Type: functional

Row | Compound | MIC
1 | CCCCCC[C@H](O)[C@@H]1C[C@@H](OC)C2=C(O1)[C@H](O)CCC2=O | > 100 µg/mL
2 | CCCCCC[C@@H]1O[C@@H]2C3=C(O[C@@H]2[C@@H]1O)[C@H](O)CCC3=O [TRICHODERMAKETONE A] | > 100 µg/mL
3 | CCCCCC[C@H]1O[C@H]2C3=C(O[C@H]2[C@H]1O)[C@H](O)CCC3=O [TRICHODERMAKETONE B] | > 100 µg/mL
4 | CCCCCC/C=C/[C@@H]1CC2=C(O1)[C@H](O)CCC2=O [TRICHODERMAKETONE C] | > 100 µg/mL
5 | CCCCCC/C=C/[C@H]1CC2=C(O1)[C@H](O)CCC2=O [TRICHODERMAKETONE D] | > 100 µg/mL

The molecules below were run on Candida albicans (assay: Antimicrobial activity against Candida albicans SC5314 measured after overnight incubation at 35 degC by broth microdilution assay).
Type: functional

Row | Compound | MIC
6 | CCCCCC[C@@H]1O[C@@H]2C3=C(O[C@@H]2[C@@H]1O)[C@H](O)CCC3=O [TRICHODERMAKETONE A] | > 125 µg/mL
